The values below come from PMC3265452 (PLoS Neglected Tropical Diseases, 2012).

Where a name gives a salt, the structure may show the parent alone.

The target in the first experiment is AaDOP2 (Aedes aegypti, UniProt H6D5H2). Nature of the experiment: AaDOP2 antagonist screen of the LOPAC1280 library (HEK-CRELuc-Aadop2 cells, luminescence).
Sequence of AaDOP2 (H6D5H2 1-476): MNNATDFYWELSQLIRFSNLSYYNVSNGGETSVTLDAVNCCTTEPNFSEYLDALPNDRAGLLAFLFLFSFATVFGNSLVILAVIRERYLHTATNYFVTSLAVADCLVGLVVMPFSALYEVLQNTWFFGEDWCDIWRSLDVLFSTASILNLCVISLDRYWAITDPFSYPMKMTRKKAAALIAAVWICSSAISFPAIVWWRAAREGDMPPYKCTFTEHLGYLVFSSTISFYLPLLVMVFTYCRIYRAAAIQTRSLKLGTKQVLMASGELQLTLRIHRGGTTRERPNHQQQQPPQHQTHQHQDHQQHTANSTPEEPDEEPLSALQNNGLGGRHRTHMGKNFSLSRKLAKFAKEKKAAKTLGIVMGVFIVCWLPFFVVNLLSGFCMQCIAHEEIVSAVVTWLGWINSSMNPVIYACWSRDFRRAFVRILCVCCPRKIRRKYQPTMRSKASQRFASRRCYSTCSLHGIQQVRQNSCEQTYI
Conditions: not given
It counts as cell-based.
In the case of `CCC1(c2ccccc2)C(=O)NCNC1=O` [Compound 967, Primidone], the “Compound effect (percent receptor signaling in presence of test compound, relative lux units relative to the SCH23390 control)” value is recorded as 94.
For `CN1CCN(CC(=O)N2c3ccccc3C(=O)Nc3cccnc32)CC1` [Compound 969, Pirenzepine dihydrochloride], the “Compound effect (percent receptor signaling in presence of test compound, relative lux units relative to the SCH23390 control)” value is on record as 114.
The same measure, in the same setting: the result for `NCCCCN` [Compound 970, Putrescine dihydrochloride] reads 88; that for `Cc1ccc(N(CC2=NCCN2)c2cccc(O)c2)cc1` [Compound 971, Phentolamine mesylate], 42; that for `CCC(=O)c1ccc2c(c1)N(CCCN(C)C)c1ccccc1S2` [Compound 972, Propionylpromazine hydrochloride], 15.
Same read-out and setting: as for `COc1cc2nc(N3CCN(C(=O)c4ccco4)CC3)nc(N)c2cc1OC` [Compound 973, Prazosin hydrochloride], the figure is 81; as for `O=C(CCc1ccc(O)cc1)c1c(O)cc(O)cc1O` [Compound 974, Phloretin], 99; as for `C#CCN(C)Cc1ccccc1` [Compound 975, Pargyline hydrochloride], 95.
Same read-out and setting: as for `CCCCCCCCCCCCCC(=O)O[C@@H]1[C@@H](C)[C@@]2(O)[C@@H](C=C(CO)C[C@]3(O)C(=O)C(C)=C[C@@H]23)[C@@H]2C(C)(C)[C@]12OC(C)=O` [Compound 976, Phorbol 12-myristate 13-acetate], the figure is 12; as for `C=CC1=C(C)c2cc3[nH]c(cc4nc(cc5[nH]c(cc1n2)c(C)c5CCC(=O)O)C(CCC(=O)O)=C4C)c(C)c3C=C` [Compound 978, Protoporphyrin IX disodium], 86; as for `CCCCC1C(=O)N(c2ccccc2)N(c2ccccc2)C1=O` [Compound 980, Phenylbutazone], 96.
Turning to `COc1ccc(C(=O)NCc2cccnc2)cc1C(=O)NCc1cccnc1` [Compound 981, Picotamide], the “Compound effect (percent receptor signaling in presence of test compound, relative lux units relative to the SCH23390 control)” value turned out to be 84.
Same read-out and setting: the result for `N[C@@H]1C[C@H]1c1ccccc1` [Compound 982, Tranylcypromine hydrochloride] reads 73.
As for `CC(C)NC[C@H](O)COc1cccc2ccccc12` [Compound 983, (S)-Propranolol hydrochloride], the “Compound effect (percent receptor signaling in presence of test compound, relative lux units relative to the SCH23390 control)” value is given as 90.
Take `CNCCCC1c2ccccc2C=Cc2ccccc21` [Compound 986, Protriptyline hydrochloride]: the “Compound effect (percent receptor signaling in presence of test compound, relative lux units relative to the SCH23390 control)” value came out at 18.
On the same count and under the same terms, as for `CCCN1C[C@H](CSC)C[C@@H]2c3cccc4[nH]cc(c34)C[C@H]21` [Compound 987, Pergolide methanesulfonate], the figure is 53; as for `O=c1[nH]c2ccccc2c2ccccc12` [Compound 988, 6(5H)-Phenanthridinone], 90; as for `CC(=O)[C@H]1CC[C@H]2[C@@H]3CC[C@H]4C[C@H](O)CC[C@]4(C)[C@H]3CC[C@]12C` [Compound 989, 5alpha-Pregnan-3alpha-ol-20-one], 73.
As for `CC(C)[N+](C)(CCOC(=O)C1c2ccccc2Oc2ccccc21)C(C)C` [Compound 990, Propantheline bromide], the “Compound effect (percent receptor signaling in presence of test compound, relative lux units relative to the SCH23390 control)” value stood at 71.
Same read-out and setting: as for `O=S(=O)(O)C1CCNCC1` [Compound 991, Piperidine-4-sulphonic acid], the figure is 105; as for `NC[C@@H]1O[C@H](O[C@H]2[C@@H](O)[C@H](O[C@@H]3[C@@H](O)[C@H](N)C[C@H](N)[C@H]3O[C@H]3O[C@H](CO)[C@@H](O)[C@H](O)[C@H]3N)O[C@@H]2CO)[C@H](N)[C@@H](O)[C@@H]1O` [Compound 994, Paromomycin sulfate], 96.
On the same count and under the same terms, as for `O.c1cnc2c(c1)ccc1cccnc12` [Compound 995, 1,10-Phenanthroline monohydrate], the figure is 95; as for `CCN(CC)CCNC(=O)c1ccc(N)cc1` [Compound 996, Procainamide hydrochloride], 100; as for `CCCNC(C)C(=O)Nc1ccccc1C` (stereo not drawn) [Compound 997, Prilocaine hydrochloride], 95.
`CCCn1cnc2c1c(=O)n(CCCCC(C)=O)c(=O)n2C` [Compound 998, Propentofylline]: the “Compound effect (percent receptor signaling in presence of test compound, relative lux units relative to the SCH23390 control)” value worked out at 87.
On the same count and under the same terms, the result for `CCCNC[C@H](O)COc1ccccc1C(=O)CCc1ccccc1.Cl` [Compound 999, (S)-(-)-propafenone hydrochloride] reads 77; that for `CN(C)C(=O)Oc1ccc[n+](C)c1` [Compound 1000, Pyridostigmine bromide], 106; that for `CCN(CC)CCOC(=O)c1ccc(N)cc1` [Compound 1001, Procaine hydrochloride], 96.
Same read-out and setting: as for `Nc1nc(Nc2ccccc2)nc2c1ncn2[C@@H]1O[C@H](CO)[C@@H](O)[C@H]1O` [Compound 1002, 2-Phenylaminoadenosine], the figure is 106.
Still for that read-out and setting: as for `OC[C@H]1O[C@@H](n2cnc3c(NCCc4ccccc4)ncnc32)[C@H](O)[C@@H]1O` [Compound 1007, N6-2-Phenylethyladenosine], the figure is 104; as for `OC[C@H]1O[C@@H](n2cnc3c(Nc4ccccc4)ncnc32)[C@H](O)[C@@H]1O` [Compound 1008, N6-Phenyladenosine], 99.
`NCC(CP(=O)(O)O)c1ccc(Cl)cc1` (stereo not drawn) [Compound 1009, Phaclofen]: the “Compound effect (percent receptor signaling in presence of test compound, relative lux units relative to the SCH23390 control)” value stood at 71.
Still for that read-out and setting: the result for `N=C(N)NC(=N)Nc1ccccc1` [Compound 1011, 1-Phenylbiguanide] reads 81; that for `CN/C(=N\c1ccc(C2=NNC(=O)CC2C)cc1)NC#N` (stereo not drawn) [Compound 1012, SKF 94836], 72.
With `Cc1nc2ccccn2c(=O)c1CCN1CCC(C(=O)c2ccc(F)cc2)CC1` [Compound 1013, Pirenperone], the “Compound effect (percent receptor signaling in presence of test compound, relative lux units relative to the SCH23390 control)” value came out at 10.
Same read-out and setting: the result for `COc1cc(OC)c(C=C2C(O)=Nc3ccccc32)c(OC)c1` [Compound 1014, IC 261] reads 78; that for `CC(C)NC[C@H](O)COc1cccc2[nH]ccc12` [Compound 1015, S(-)-Pindolol], 87; that for `CC(N/C(=N\C#N)Nc1ccncc1)C(C)(C)C` (stereo not drawn) [Compound 1016, Pinacidil], 89.
With `CC(=O)[C@H]1CC[C@H]2[C@@H]3CC=C4C[C@@H](OS(=O)(=O)[O-])CC[C@]4(C)[C@H]3CC[C@]12C.[Na+]` [Compound 1017, Pregnenolone sulfate sodium], the “Compound effect (percent receptor signaling in presence of test compound, relative lux units relative to the SCH23390 control)” value is recorded as 107.

The experiment is the same for the next values; noted with them: 10 µM compound, 300 nM dopamine, 2 hr; hit = compound effect <20.
As to `Br.Br.N=C(N)SCCc1cccc(CCSC(=N)N)c1` [Compound 977, 1,3-PBIT dihydrobromide], the “Compound effect (percent receptor signaling in presence of test compound, relative lux units relative to the SCH23390 control)” value is given as 117%.
Still for that read-out and setting: as for `Br.Br.N=C(N)SCCc1ccc(CCSC(=N)N)cc1` [Compound 979, 1,4-PBIT dihydrobromide], the figure is 120%; as for `N.S=C(S)N1CCCC1` [Compound 984, Ammonium pyrrolidinedithiocarbamate], 85%.
Still for that read-out and setting: as for `O=C(O)/C=C\C(=O)O.c1cnc(N2CCN(Cc3ccc4c(c3)OCO4)CC2)nc1` [Compound 993, Piribedil maleate], the figure is 120%; as for `CCCN1CCC[C@H](c2cccc(O)c2)C1.Cl` [Compound 1003, R(+)-3PPP hydrochloride], 86%; as for `CCCN1CCC[C@@H](c2cccc(O)c2)C1.Cl` [Compound 1004, S(-)-3PPP hydrochloride], 89%.
Still for that read-out and setting: as for `Cl.NCC#Cc1ccccc1` [Compound 1006, 3-Phenylpropargylamine hydrochloride], the figure is 91%; as for `Cc1nc(N=Nc2ccc(S(=O)(=O)O)cc2S(=O)(=O)O)c(COP(=O)(O)O)c(C=O)c1O` [Compound 1018, PPADS], 103%.

Staying with this experiment, now noted: read-out: % of the SCH23390 effect (percent inhibition of receptor response relative to the SCH23390 control).
Usually inhibition stands for the relative decrease from the control value, in per cent. Consider `CCC(=O)c1ccc2c(c1)N(CCCN(C)C)c1ccccc1S2` [Compound 972, Propionylpromazine hydrochloride], for which the inhibition at 10 µM was determined as 85%.
Still for that read-out and setting: the result for `CCCCCCCCCCCCCC(=O)O[C@@H]1[C@@H](C)[C@@]2(O)[C@@H](C=C(CO)C[C@]3(O)C(=O)C(C)=C[C@@H]23)[C@@H]2C(C)(C)[C@]12OC(C)=O` [Compound 976, Phorbol 12-myristate 13-acetate] reads 88%; that for `CNCCCC1c2ccccc2C=Cc2ccccc21` [Compound 986, Protriptyline hydrochloride], 82%; that for `Cc1nc2ccccn2c(=O)c1CCN1CCC(C(=O)c2ccc(F)cc2)CC1` [Compound 1013, Pirenperone], 90%.
